In one data set the target is T1, human mu-opioid receptor (Homo sapiens, UniProt P35372).
T1 construct: expressed in transfected cells; host or cells: HEK-293 (HEK-MOR), kept under G418
Nature of the data set: cell-based. It is filed as cell-based. The method, then:
(§1) Cells (72,000 per well) were plated in 100 μl/well of DMEM in 96-well solid-bottom white plates (GIBCO) and 50 μl/well of drug in HBSS in the presence of forskolin and 3-isobutyl-1-methylxanthine at final concentrations of 1 μM and 500 μM, respectively. After 30 min of incubation at room temperature, the concentration of cyclic adenosine monophosphate was determined using a LANCE Ultra cAMP Assay kit (PerkinElmer).
As MOR belongs to the GPCR family, activation of MOR leads to a decrease in intracellular cAMP level.

Another data set has as its target T2, myc-tagged human MOR (Homo sapiens, UniProt P35372).
T2 construct: myc; host or cells: mouse pituitary AtT-20 cells
Nature of the data set: cell-based.

The target of another data set is T3, human NOP receptor (Homo sapiens, UniProt P41146).
T3 construct: expressed in transfected cells; host or cells: CHO-K1 (CHO-K1-NOP)
Nature of the data set: cAMP assay in CHO-K1 cells expressing human NOP (CHO-K1-NOP). It is filed as cell-based. The settings on record: read-out: EC50 in decreasing the cAMP level.
From the text: In an exemplary in vitro assay for identifying NOP agonists, cells are engineered to overexpress NOP and are designed to detect changes in intracellular cAMP levels in response to agonist stimulation of the receptor. The enzyme donor-cAMP complex complements with the acceptor and forms an active enzyme. The active enzyme subsequently hydrolyzes a substrate to produce a chemiluminescent signal that is directly proportional to the amount of cAMP in the cells. These cells have thus been modified to work in an agonist mode.
as §1
It was measured using the PathHunter enzyme complementation assay in CHO-K1 cells expressing human NOP (CHO-K1-NOP).
(In general: Cyclic AMP is a second messenger, typically raised through Gs and lowered through Gi signalling.)

For data set [1], the system named is wild-type C57BL/6 (B6) mice. Nature of the data set: Tail flick test (acute thermal pain). It is filed as in vivo, mouse. On the technique in general: In hot-plate and tail-flick tests a longer latency is read as antinociception.
Data set [2] relates to B6 mice. Nature of the data set: Tail-clip test (mechanical pain). The data set is classed as in vivo, mouse. The settings on record: wildtype B6 mice. The procedure:
Each B6 mouse was placed in an acrylic box (10 cm in diameter, 30 cm high) and allowed to acclimate for 5 min before testing, and then a clip was applied 1-cm from the base of the tail. The latency to bite or grasp the clip was measured during the clip was applied to the tail. […] Regardless of the response to 20 s, a cut off time was set to avoid tissue damage.

Data set [3] has as its system oxaliplatin-injected B6 mice. Nature of the data set: Oxaliplatin-induced neuropathic pain, mechanical allodynia (Von Frey test). The data set is classed as in vivo, mouse. The settings on record: PID 3, 30 min after treatment, equi-antinociceptive doses. The procedure: To induce neuropathic pain, each B6 mouse was intraperitoneally injected with either oxaliplatin (3.0 mg/kg), or vehicle (saline) after habituation to the test environment and baseline measurements of pain sensitivity. […] To induce cancer pain, each B6 mouse was injected with either 20 μL phosphate-buffered saline or cells (6×10^5 cells/20 μL phosphate-buffered saline) in the footpad of the right hind paw under isoflurane anesthesia on post-inoculation day 0. On post-inoculation day 19, i.e., the test day, mice were placed on a mesh floor with 5×5 mm holes, covered with a cup to prevent visual stimulation, and allowed to adapt for 1 h prior to testing. […] The tests were initiated with 0.5 g force. Briefly, whenever a withdrawal response occurred, the next weaker von Frey filament was applied. On the other hand, whenever no withdrawal response occurred, the next stronger filament was applied. Mechanical allodynia was defined as changes in the amount of pressure to induce the hind paw withdrawal.
This treatment paradigm was followed to produce neuropathic pain mice.

For data set [4], the system named is melanoma cell-implanted B6 mice. Nature of the data set: Cancer-induced pain, cold allodynia (acetone drop test). The data set is classed as in vivo, mouse. The settings on record: PID18, 30 min after treatment. The procedure:
In cancer-induced pain model, cold allodynia in mice was assessed by using the acetone test. Absolute acetone (100%) in a volume of 5 μL was placed on the base of the paw in mice. […]
The cold allodynia was tested using acetone drop test and mechanical allodynia was measured using the Von Frey test to examine the antinociceptive effects of each drug treatment.

Data set [5] deals with B6 mice. Nature of the data set: Respiratory function test. The settings on record: acute, equi-antinociceptive doses, 10-60 min.
Data set [6] deals with B6 mice. Nature of the data set: Cardiovascular function test (tail cuff plethysmography). The settings on record: acute, equi-antinociceptive doses.
In a further data set the target is MOR (Homo sapiens, UniProt P35372). Nature of the data set: cell-based. More on the design: expressed in transfected cells; host or cells: CHO-K1/MOR/Ga15 cells. The settings on record: read-out: FLIPR Ca2+ EC50. The method, then: In an exemplary in vitro assay for identifying MOR agonists, cells that express a MOR are treated with a test compound in a cellular calcium fluorescent assay and calcium fluorescence intensity is then measured to determine whether the MOR is activated. A test compound is identified as a MOR agonist if the MOR is activated.
EC50 herein refers to the concentration of a compound that induces a response halfway between the baseline and the maximum after a specified exposure time. AUC refers to the area under the response curve, an indication of the compound's capability of activating a MOR.
One day before the assay, CORNING® black with clear flat bottom 96-well assay plates were coated with a 0.1 mg/mL Poly-L-Lysine solution. CHO-K1/MOR/Ga15 cells were suspended in the F12 medium and plated at a density of about 8×10^4 cells/well in […] medium. Cells were incubated in a humidified atmosphere of 10% CO2 at 37° C. overnight so as to reach an 80-90% confluent cell monolayer before the assay. On the day of the assay, 150 μL medium/well was removed from plate. […] Compounds and other reagents were dissolved in the assay buffer. […] The [Ca^2+]i fluorescence was measured up to 90 s after agonist injection.

The text below walks through data of patent US10597378B2 (priority 2017, dated 2020).

SMILES strings stand for the structures.

T2 sequence (P35372 whole entry): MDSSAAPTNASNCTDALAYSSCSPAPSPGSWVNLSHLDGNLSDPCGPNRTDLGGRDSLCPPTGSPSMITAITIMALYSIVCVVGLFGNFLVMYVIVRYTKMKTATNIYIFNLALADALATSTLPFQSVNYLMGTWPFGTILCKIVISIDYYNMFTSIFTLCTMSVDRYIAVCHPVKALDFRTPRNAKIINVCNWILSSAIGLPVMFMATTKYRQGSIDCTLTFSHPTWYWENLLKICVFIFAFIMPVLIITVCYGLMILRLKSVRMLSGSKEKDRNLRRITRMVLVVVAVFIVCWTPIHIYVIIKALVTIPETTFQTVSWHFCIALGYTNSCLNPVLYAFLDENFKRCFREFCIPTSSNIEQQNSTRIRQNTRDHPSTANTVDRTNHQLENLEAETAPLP
T1 sequence (P35372 whole entry): as above
T3 sequence (P41146 whole entry): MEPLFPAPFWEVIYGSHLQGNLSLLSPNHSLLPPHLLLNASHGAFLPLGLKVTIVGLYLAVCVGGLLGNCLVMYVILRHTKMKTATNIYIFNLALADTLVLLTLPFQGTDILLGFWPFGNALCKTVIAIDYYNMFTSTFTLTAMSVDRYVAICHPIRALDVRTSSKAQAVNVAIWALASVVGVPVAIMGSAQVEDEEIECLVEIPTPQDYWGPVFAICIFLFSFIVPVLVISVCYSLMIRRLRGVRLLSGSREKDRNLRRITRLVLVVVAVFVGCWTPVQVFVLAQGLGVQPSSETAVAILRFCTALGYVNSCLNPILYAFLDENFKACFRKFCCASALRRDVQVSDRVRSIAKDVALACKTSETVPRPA
MOR, sequence (P35372 whole entry): as the sequence (P35372 whole entry) above

Regarding `CN1CCc2ccccc2C1CNC(=O)c1ccc(Cl)c(Cl)c1` (centres unmarked) [Compound 67, 3,4-Dichloro-N-[(2-methyl-1,2,3,4-tetrahydro-1-isoquinolinyl)methyl]benzamide], the 50% effective concentration (EC50) (as a rule, the midpoint of the concentration-response curve) at human mu-opioid receptor was 0.63 nM; on myc-tagged human MOR, 59.9 nM; on human NOP receptor it was 2.2 nM; at MOR, 10 nM. In addition, the cAMP production result on human mu-opioid receptor is “significantly decreased cAMP production”. For the same compound, the “Emax of membrane potential hyperpolarization” value on myc-tagged human MOR is given as “slightly higher than that of morphine”. In data set [1] (Mus musculus, sc, single subcutaneous injection, read-out: ED50 of antinociception), the median effective dose (ED50) (in general, the dose at which the effect has come halfway, by size or by number of responders) stood at 0.78 mg/kg. Moreover, the “time at which analgesic effects were exerted after acute injection” value in data set [1] (equi-antinociceptive doses, B6 mice) is listed as 10 min. The “antinociception (% of MPE, AUC)” value in data set [1] (single dose subcutaneous injection, 30-120 min) was “produced equi-antinociceptive effects at doses of 0.6-1.8 mg/kg”. In the data set with B6 mice [2], the “antinociception of mechanical pain” value is “higher antinociceptive effect with mechanical stimuli than morphine”. In addition, the “antinociceptive effect in oxaliplatin-induced sensory allodynia” value in data set [3] was “comparable to that of morphine”. The “licking and shaking frequency” value in [4] is reported as “less than that of morphine”. Moreover, the respiratory frequency result with B6 mice [5] is listed as “kept recovery of respiratory frequency after 30 min”. Moreover, the cardiovascular function entry with B6 mice [6] was “minimal effect on cardiovascular function”.
